In US20090186100A1, “MEDICAMENT FOR ANTI-AGING SKIN CARE AND WOUND HEALING AND USE THEREOF” (SAGITTARIUS LIFE SCIENCE CORP., priority 2008, published 2009):

What was measured:
[1] = Free radical scavenger, SOD mimetic activity (xanthine/xanthine oxidase/NBT); assay type: biochemical; conditions: 6.1 μM
Protocol: SS304L or vehicle was incubated with 0.12 mM xanthine, 6 mU xanthine oxidase, 27 μM nitroblue tetrazolium (NBT), 0.11 mM EDTA, 0.005% bovine serum albumin and Na2CO3 at pH 10.5 at 25° C. for 20 minutes. Conversion of xanthine to uric acid +O^−+NBT to formazan was then determined by measurement of absorbance at 595 nm and percent inhibition by superoxide dismutase or SS304L was calculated.

[2] = test system: Human dermal fibroblasts (HFB); assay: HFB proliferation (MTT); assay type: cell-based; conditions: 72 hours; for Mean OD: MTT A570
Protocol: Human dermal fibroblasts (HFB) were cultured from foreskin with consent by cell emigration from ˜1 mm^3 skin pieces in DMEM+1 mM sodium pyruvate+2 mM glutamine+100 U/ml penicillin+100 ug/ml streptomycin+10% fetal calf serum (FCS) (C-DMEM) under humidified atmosphere containing 5% CO2 at 37° C.
1×10^4 HFB were seeded in a 96 multi-well culture dish. 48 hours later, the cells were treated with various concentrations of SS304L in C-DMEM under humidified atmosphere containing 5% CO2 at 37° C. The cells were exposed to drugs for 72 hours, and then treated with 0.5 mg/ml MTT for 4 hours at 37° C. The reduced formazan was dissolved in isopropanol containing 0.04 N HCl, and measured at A570 nm by an ELISA reader (Molecular Device).

[3] = biological target: T1, Human recombinant COX II (Homo sapiens, UniProt P35354); assay: Inhibition of cyclooxygenase II; assay type: biochemical
T1 construct: purchased Sigma C-0858; host or cells: Sf21 insect cells
T1 sequence (P35354 18-604): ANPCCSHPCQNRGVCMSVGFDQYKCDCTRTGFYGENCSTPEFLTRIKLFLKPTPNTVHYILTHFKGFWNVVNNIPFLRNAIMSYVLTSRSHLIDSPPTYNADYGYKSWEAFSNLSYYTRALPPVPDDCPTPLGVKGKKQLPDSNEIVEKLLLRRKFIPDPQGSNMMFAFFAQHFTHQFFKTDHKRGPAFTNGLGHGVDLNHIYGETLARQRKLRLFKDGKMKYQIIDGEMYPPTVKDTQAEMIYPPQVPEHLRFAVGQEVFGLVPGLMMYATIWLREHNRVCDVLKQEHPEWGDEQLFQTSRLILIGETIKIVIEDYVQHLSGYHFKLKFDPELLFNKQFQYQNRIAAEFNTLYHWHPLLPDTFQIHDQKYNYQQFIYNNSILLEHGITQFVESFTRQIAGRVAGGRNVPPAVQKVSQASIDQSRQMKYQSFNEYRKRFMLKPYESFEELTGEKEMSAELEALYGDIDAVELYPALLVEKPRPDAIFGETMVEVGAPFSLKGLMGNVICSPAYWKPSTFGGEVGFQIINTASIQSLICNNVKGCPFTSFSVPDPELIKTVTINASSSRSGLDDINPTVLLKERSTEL
Protocol: SS304L or vehicle was […] with 0.11 U enzyme, 1 mM reduced glutathione, 500 μM phenol and 1 μM hematin in Tris-HCl, pH 7.7 at 37° C. for 15 minutes. 0.3 μM arachidonic acid as substrate was added and the reaction was terminated by addition of 1 N HCl after 5 minutes. The converted PGE2 was measured by an Amersham EIA kit following centrifugation. SS304L was assayed at 10 and 100 μg/ml.

[4] = test system: full thickness excision wounds; assay: Full thickness excision wound healing in mice; assay type: in vivo, Aging male ICR mice
Protocol: Aging male ICR mice at body weights of 40 to 50 grams (Age: 14 to 16 weeks) were lightly anesthetized with ether. 0.7 mm in diameter full thickness excisions were conducted at the dorsal back skin after shaving and 70% ethanol sterilization. Immediately after excision, the wounds were covered with either vehicle (sterile 1% carboxymethyl cellulose, 25 μl) at first wound site of all mice, and with 1% arginine, 0.1% S[…], or 1% S[…] at the second wound site. Each group contained 4 to 6 mice. The drugs were applied on the day of photography (Day 0, 1, 2, 3, 4, 7, 10, 14, 18). The areas of the wounds and the rates and qualities of healing were compared at each time point. Arginine was used as comparison due to the similarity of part of its action mechanisms to S[…].

Molecule: O=C(O[C@@H]1Cc2c(O)cc(O)cc2O[C@@H]1c1ccc(O)c(O)c1)c1cc(O)c(O)c(O)c1 [(−)-Epicatechin gallate]
- Inhibition (%) [1]: 50%

Molecule: C[C@]12CC[C@@H]3c4ccc(O)cc4CC[C@H]3[C@@H]1CC[C@@H]2O [Estradiol]
- Inc. (%.) ([2]; Estradiol 1 nM): −4%
- Mean OD ([2]; Estradiol 1 nM): 0.131
- Inc. (%.) ([2]; Estradiol 3 nM): 4%
- Mean OD ([2]; Estradiol 3 nM): 0.139
- Inc. (%.) ([2]; Estradiol 10 nM): 2%
- Mean OD ([2]; Estradiol 10 nM): 0.137
- Inc. (%.) ([2]; Estradiol 30 nM): −3%
- Mean OD ([2]; Estradiol 30 nM): 0.132
- Inc. (%.) ([2]; Estradiol 100 nM): −4%
- Mean OD ([2]; Estradiol 100 nM): 0.131

Molecule: CS(=O)(=O)Nc1ccc([N+](=O)[O-])cc1Oc1ccccc1 [Nimesulide]
- inhibition at 1 µM [3]: 50%

Molecule: N=C(N)NCCC[C@H](N)C(=O)O [arginine]
- Inflammation of wounds ([4]; day 3 post wounding, topical): no apparent sign of inflammation
- Re-epithelization/granulation process ([4]; day 7, topical): significantly facilitated
- Unhealed wound areas compared to the areas of the vehicle treated wounds (fraction) ([4]; day 10, applied at 1%): ⅓ to ½
- Healing of wounds ([4]; day 14, topical): completely healed

Molecule: Vitamin A
- Inc. (%) ([2]; Vitamin A 0.1 uM): −7%
- Mean OD ([2]; Vitamin A 0.1 uM): 0.128
- Inc. (%) ([2]; Vitamin A 0.3 uM): −4%
- Mean OD ([2]; Vitamin A 0.3 uM): 0.131
- Inc. (%) ([2]; Vitamin A 1 uM): −4%
- Mean OD ([2]; Vitamin A 1 uM): 0.131
- Inc. (%) ([2]; Vitamin A 3 uM): −12%
- Mean OD ([2]; Vitamin A 3 uM): 0.124
- Inc. (%) ([2]; Vitamin A 10 uM): −6%
- Mean OD ([2]; Vitamin A 10 uM): 0.129

Molecule: Vitamin E
- Inc. (%.) ([2]; Vitamin E 3 uM): 0%
- Mean OD ([2]; Vitamin E 3 uM): 0.135
- Inc. (%.) ([2]; Vitamin E 10 uM): 9%
- Mean OD ([2]; Vitamin E 10 uM): 0.144
- Inc. (%.) ([2]; Vitamin E 30 uM): −4%
- Mean OD ([2]; Vitamin E 30 uM): 0.131
- Inc. (%.) ([2]; Vitamin E 100 uM): −9%
- Mean OD ([2]; Vitamin E 100 uM): 0.126
- Inc. (%.) ([2]; Vitamin E 300 uM): −16%
- Mean OD ([2]; Vitamin E 300 uM): 0.120
